Measured values taken from ChEMBL document CHEMBL5303304, “EUbOPEN Chemogenomics Library - IncuCyte” (2023).

What was measured:
Assay type in all cases: toxicity, cell-based
[1] = test system: Fibroblast; assay: Incucyte cell viability with human fibroblast; settings: 10 µM, compound concentration 10 uM
[2] = test system: U2OS; assay: Incucyte cell viability with U2OS; settings: human, 10 µM, compound concentration 10 uM
[3] = test system: HEK-293T; assay: Incucyte cell viability with HEK293T; settings: human, 10 µM, compound concentration 10 uM
Also: unitless GR value; below 1 slowed growth and below 0 cell loss.

| SMILES | Growth Rate ([1]; 0 h, replicate number 2) | Growth Rate ([1]; 6 h, replicate number 2) | Growth Rate ([1]; 12 h, replicate number 2) | Growth Rate ([1]; 18 h, replicate number 2) | Growth Rate ([1]; 24 h, replicate number 2) | Growth Rate ([2]; 6 h, replicate number 1) | Growth Rate ([2]; 12 h, replicate number 2) | Growth Rate ([3]; 0 h, replicate number 1) | Growth Rate ([3]; 0 h, replicate number 2) | Growth Rate ([2]; 0 h, replicate number 1) | Growth Rate ([2]; 6 h, replicate number 2) | Growth Rate ([2]; 18 h, replicate number 2) | Growth Rate ([3]; 6 h, replicate number 1) | Growth Rate ([3]; 12 h, replicate number 1) | Growth Rate ([3]; 18 h, replicate number 1) | Growth Rate ([3]; 18 h, replicate number 2) | Growth Rate ([3]; 24 h, replicate number 1) | Growth Rate ([1]; 6 h, replicate number 1) | Growth Rate ([3]; 12 h, replicate number 2) | Growth Rate ([3]; 24 h, replicate number 2) | further results |
| --- | --- | --- | --- | --- | --- | --- | --- | --- | --- | --- | --- | --- | --- | --- | --- | --- | --- | --- | --- | --- | --- |
| Cc1cc(CN(CC(=O)Nc2ccc(Cl)cc2Cl)C2CCCCC2)ccc1OCC(=O)O | -0.93 | 0.35 | 0.9 | 0.88 | 0.87 | 0.64 | 0.97 | 0.78 | 0.19 |  |  |  |  |  |  |  |  |  |  |  |  |
| Cc1c(CCC(=O)O)cccc1NC(=O)[C@@H](c1ccc(-c2cncc(Cl)c2)c(F)c1)C1CCCC1 |  | -0.66 | 0.3 | 0.9 | 0.87 | 0.95 |  | -0.19 | -0.54 | 0.68 |  |  |  |  |  |  |  |  |  |  | Growth Rate ([2]; 12 h, replicate number 1): 0.73; Growth Rate ([3]; 6 h, replicate number 2): 0.98 |
| CCn1c(=O)c2c(C)c(C(=O)N3CCC(O)CC3)sc2n(CCC(F)(F)F)c1=O | 0.25 |  |  |  | 0.97 |  | 0.97 | 0.93 | 0.32 |  | 0.72 | 0.97 | 0.41 | 0.79 | 0.74 | 0.86 | 0.83 |  |  |  |  |
| O=C(NCCN1CCOCC1)c1ccc2nn(CCOc3ccc(Cl)cc3)cc2c1 | -0.92 | 0.87 | 0.78 | 0.98 |  | 0.71 | 0.88 | 0.54 | 0.3 |  | 0.98 |  | 0.47 | 0.82 | 0.71 | 0.47 | 0.72 | 0.63 | 0.18 | 0.61 | Growth Rate ([1]; 0 h, replicate number 1): -1; Growth Rate ([1]; 18 h, replicate number 1): 0.86; Growth Rate ([1]; 24 h, replicate number 1): 0.92; Growth Rate ([2]; 0 h, replicate number 2): 0.25; Growth Rate ([2]; 24 h, replicate number 1): 0.93; Growth Rate ([3]; 6 h, replicate number 2): 0.26 |
| O=C(O)CCCCN(CCc1cc(F)ccc1OCc1ccc(-c2ccc(C(F)(F)F)cc2)cc1)Cc1ccc(C(=O)O)cc1 | -0.98 |  |  |  |  | 0.61 | 0.87 | 0.09 | -0.87 | 0.99 | 0.58 | 0.85 |  |  |  |  |  | 0.59 |  |  | Growth Rate ([1]; 0 h, replicate number 1): -1; Growth Rate ([1]; 12 h, replicate number 1): 0.66; Growth Rate ([1]; 18 h, replicate number 1): 0.85; Growth Rate ([1]; 24 h, replicate number 1): 0.96; Growth Rate ([2]; 0 h, replicate number 2): -0.4; Growth Rate ([2]; 24 h, replicate number 2): 0.91 |
| CCS(=O)(=O)Nc1cccc(Oc2cncc(Nc3ccc(I)cc3F)c2C(N)=O)c1 |  |  |  |  |  | 0.71 | 0.76 | 0.82 |  |  | 0.62 |  | 0.77 | 0.82 | 0.77 | 0.58 | 0.74 | 0.99 | 0.71 | 0.69 | Growth Rate ([2]; 18 h, replicate number 1): 0.92; Growth Rate ([2]; 24 h, replicate number 1): 0.84; Growth Rate ([2]; 24 h, replicate number 2): 0.98 |
| Cl.O=c1cc(C2CCNCC2)n2nc3cccc(Cl)c3c2[nH]1 | -0.98 |  |  |  |  | 0.98 | 1 | -0.29 | -0.61 | 0.61 |  |  |  |  |  | 0.96 |  |  | 0.58 | 0.91 | Growth Rate ([1]; 0 h, replicate number 1): -0.94; Growth Rate ([2]; 18 h, replicate number 1): 0.98 |
| O=C(O)C[C@H]1CCn2c1c(Sc1ccc(Cl)cc1)c1ccc(F)cc12 |  | 0.42 | 0.4 | 0.97 | 0.83 |  |  | 0.01 | -0.28 |  |  |  | 0.76 | 0.96 |  | 0.93 | 0.92 |  | 0.99 | 0.78 | Growth Rate ([1]; 0 h, replicate number 1): -1; Growth Rate ([1]; 24 h, replicate number 1): 0.89; Growth Rate ([2]; 24 h, replicate number 1): 0.94 |
| CC[C@@H](CO)Nc1nc(Nc2cccc(NC(=O)C(C)(C)C)c2)ncc1F | 0.61 |  |  |  |  | 0.56 | 0.83 | 0.29 |  |  | 0.8 | 0.86 |  | 0.87 |  |  | 0.96 |  |  |  | Growth Rate ([2]; 0 h, replicate number 2): 0.94; Growth Rate ([2]; 12 h, replicate number 1): 0.66; Growth Rate ([2]; 18 h, replicate number 1): 0.87; Growth Rate ([2]; 24 h, replicate number 1): 0.91; Growth Rate ([2]; 24 h, replicate number 2): 0.89 |
| Cc1nc2c(cc1F)c(-c1nnc3c(n1)NC(=O)C3(C)C)nn2Cc1cccc(F)c1F | 0.67 |  |  |  |  | 0.9 | 0.84 | 0.61 | 0.48 |  | 0.58 | 0.95 | 0.97 | 0.95 | 0.75 | 0.8 | 0.79 | 0.59 | 0.74 | 0.91 | Growth Rate ([1]; 0 h, replicate number 1): -1; Growth Rate ([1]; 18 h, replicate number 1): 0.85; Growth Rate ([1]; 24 h, replicate number 1): 0.94; Growth Rate ([2]; 0 h, replicate number 2): 0.99; Growth Rate ([3]; 6 h, replicate number 2): 0.57 |
| N#Cc1c(SCc2csc(-c3ccc(Cl)cc3)n2)nc(N2CCCC2)c(C#N)c1-c1ccc(OCCO)cc1 | -1 |  |  |  |  | 0.87 | 0.77 | -0.68 | -0.75 |  | 0.8 | 0.93 |  |  |  |  |  |  |  |  | Growth Rate ([2]; 0 h, replicate number 2): 0.14; Growth Rate ([2]; 24 h, replicate number 2): 0.97 |
| CC(C)(C)OC(=O)CN1C(=O)c2c(OCC(=O)O)cccc2Oc2ccc(C(F)(F)F)cc21 |  | -0.59 | 0.43 | 0.87 |  | 0.75 |  | 0.31 | -0.65 | 0.59 |  |  | 0.69 | 0.61 | 0.76 |  | 0.75 | 0.95 |  |  | Growth Rate ([2]; 12 h, replicate number 1): 0.85; Growth Rate ([2]; 18 h, replicate number 1): 0.83; Growth Rate ([2]; 24 h, replicate number 1): 0.89 |
| Cc1nn(-c2ccccc2)c(Nc2ccccc2C(=O)O)c1-c1cc2nccnc2c(F)c1F | -0.36 | -0.17 |  | 0.57 | 0.79 | 0.75 |  | 0.45 | -0.55 |  |  |  |  |  |  |  |  | 0.39 |  |  | Growth Rate ([2]; 12 h, replicate number 1): 1 |
| C[C@]12CC[C@@H]3c4ccc(C(N)=O)cc4CC[C@H]3[C@@H]1CC=C2c1cncc(F)c1 | -0.92 |  |  |  |  |  | 0.79 | -0.13 |  | 0.64 |  | 0.92 | 0.93 | 0.9 | 0.96 | 0.29 | 0.97 |  | 0.31 | 0.4 | Growth Rate ([2]; 12 h, replicate number 1): 0.98; Growth Rate ([2]; 24 h, replicate number 2): 1; Growth Rate ([3]; 6 h, replicate number 2): -0.72 |
